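Compound exposure: 48 hours, 5 concentrations, 96-well plates. GI50 = concentration required for 50% inhibition of growth.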 Activity calls are given as the source filed them. Rule as the data show it: active = GI50 up to about 1.1 µM and inactive = higher. Where a SMILES comes first, the peptide text is derived from it.
Key:
Test in all cases: DTP human tumour cell line panel, 48 h
786-0 = tested on: 786-0
A549 = tested on: A549
ACHN = tested on: ACHN
CAKI-1 = tested on: CAKI-1
CCRF-CEM = tested on: CCRF-CEM
COLO 205 = tested on: COLO 205
HCT-116 = tested on: HCT-116
HOP-62 = tested on: HOP-62
MDA-MB-435 = tested on: MDA-MB-435
MOLT-4 = tested on: MOLT-4
OVCAR-5 = tested on: OVCAR-5
RXF 393 = tested on: RXF 393
SK-MEL-28 = tested on: SK-MEL-28
SK-MEL-2 = tested on: SK-MEL-2
SW-620 = tested on: SW-620
TK-10 = tested on: TK-10
UACC-257 = tested on: UACC-257
HCC 2998 = tested on: HCC 2998
LOX IMVI = tested on: LOX IMVI
NCI-H522 = tested on: NCI-H522

Measured: GI50

NNc1nncc2[nH]cnc12
inactive: 786-0 > 100 µM | A549 > 100 µM | ACHN > 100 µM | CAKI-1 > 100 µM | CCRF-CEM > 100 µM | COLO 205 > 100 µM | HCT-116 > 100 µM | HOP-62 > 100 µM | MDA-MB-435 > 100 µM | MOLT-4 > 100 µM | OVCAR-5 > 100 µM | RXF 393 > 100 µM | SK-MEL-28 > 100 µM | SK-MEL-2 > 100 µM | SW-620 > 100 µM | TK-10 > 100 µM | UACC-257 > 100 µM

COc1ccc(/C(=N/N=c2\[nH]c3ccccc3n2Cc2ccccc2)C(=O)O)cc1
inactive: 786-0 5.12 µM | A549 23 µM | ACHN 22.6 µM | CAKI-1 16.7 µM | CCRF-CEM 3.97 µM | COLO 205 4.03 µM | HCC 2998 10 µM | HCT-116 12.7 µM | HOP-62 10.5 µM | LOX IMVI 6.89 µM | MDA-MB-435 21.1 µM | MOLT-4 7.8 µM | NCI-H522 8.65 µM | OVCAR-5 48.5 µM | SK-MEL-28 23.8 µM | SK-MEL-2 28.4 µM | SW-620 27 µM | TK-10 35.3 µM | UACC-257 29 µM

Cc1c(Br)c(Br)c(C)[s+]1[O-]
inactive: 786-0 16.9 µM | A549 15.6 µM | ACHN 19 µM | CAKI-1 13.7 µM | CCRF-CEM 1.92 µM | COLO 205 2.57 µM | HCC 2998 18.4 µM | HCT-116 6 µM | HOP-62 15.6 µM | LOX IMVI 11.1 µM | MDA-MB-435 9.16 µM | MOLT-4 3.48 µM | NCI-H522 8.02 µM | OVCAR-5 18 µM | SK-MEL-28 17.6 µM | SK-MEL-2 13.3 µM | SW-620 8.89 µM | TK-10 21.2 µM | UACC-257 12.2 µM

O=c1oc2ccccc2cc1-c1nc2ccccc2s1
inactive: 786-0 4.58 µM | A549 4.94 µM | ACHN 3.51 µM | CAKI-1 4.92 µM | COLO 205 23.2 µM | HCC 2998 37.2 µM | HCT-116 5.08 µM | HOP-62 6.14 µM | LOX IMVI 10.1 µM | MDA-MB-435 5.36 µM | NCI-H522 6.47 µM | OVCAR-5 23.3 µM | RXF 393 11.3 µM | SK-MEL-28 21.2 µM | SW-620 14.3 µM | TK-10 12.6 µM | UACC-257 28.1 µM

O=C1NC(=S)NC(=O)C1C(c1ccc(O)cc1)C1C(=O)NC(=S)NC1=O.c1ccncc1
inactive: 786-0 > 100 µM | A549 > 100 µM | ACHN > 100 µM | CAKI-1 > 100 µM | CCRF-CEM > 100 µM | COLO 205 > 100 µM | HCT-116 > 100 µM | HOP-62 > 100 µM | LOX IMVI > 100 µM | MDA-MB-435 > 100 µM | MOLT-4 > 100 µM | NCI-H522 > 100 µM | OVCAR-5 > 100 µM | RXF 393 > 100 µM | SK-MEL-28 > 100 µM | SK-MEL-2 > 100 µM | SW-620 > 100 µM | TK-10 > 100 µM | UACC-257 > 100 µM

C[C@]12CC[C@H](O)CC1=CC[C@@H]1C2CC[C@]2(C)c3n[nH]nc3CC12 (stereo partly drawn)
inactive: 786-0 > 100 µM | A549 > 100 µM | ACHN > 100 µM | CAKI-1 > 100 µM | CCRF-CEM > 100 µM | COLO 205 > 100 µM | HCC 2998 > 100 µM | HCT-116 > 100 µM | HOP-62 > 100 µM | MDA-MB-435 36.2 µM | MOLT-4 > 100 µM | NCI-H522 > 100 µM | OVCAR-5 > 100 µM | RXF 393 > 100 µM | SK-MEL-28 > 100 µM | SW-620 > 100 µM | TK-10 > 100 µM | UACC-257 > 100 µM

CCOC(=O)C1C(c2ccc3c(c2)OCO3)c2c(n[nH]c2O)CC1(C)O (stereo not drawn)
inactive: 786-0 > 100 µM | A549 > 100 µM | ACHN > 100 µM | CAKI-1 > 100 µM | CCRF-CEM > 100 µM | COLO 205 > 100 µM | HCC 2998 > 100 µM | HCT-116 > 100 µM | HOP-62 > 100 µM | LOX IMVI > 100 µM | MDA-MB-435 > 100 µM | MOLT-4 > 100 µM | NCI-H522 > 100 µM | OVCAR-5 > 100 µM | SK-MEL-28 > 100 µM | SK-MEL-2 > 100 µM | SW-620 > 100 µM | TK-10 > 100 µM | UACC-257 > 100 µM

CC(=O)NC(CS)C(=O)NC(CO)C(=O)NC(CO)C(=O)NC(Cc1c[nH]c2ccccc12)C(=O)N1CCCC1C(=O)NC(CO)C(=O)NC(Cc1c[nH]c2ccccc12)C(=O)NC(Cc1c[nH]cn1)C(=O)NC(CO)C(=O)NC(Cc1c[nH]c2ccccc12)C(=O)NCC(=O)NCC(=O)NC(CC(=O)O)C(=O)NC(CCC(N)=O)C(=O)NC(CCCCN)C(=O)NC(Cc1ccccc1)C(=O)NC(CCCNC(=N)N)C(=O)NC(CCCCN)C(N)=O (stereo not drawn) (Ac-CSSWPSWHSWGGDQKFRK-NH2; configuration not given here)
inactive: 786-0 > 25 µM | A549 > 25 µM | ACHN > 25 µM | CAKI-1 > 25 µM | CCRF-CEM > 25 µM | COLO 205 > 25 µM | HCT-116 > 25 µM | HOP-62 > 25 µM | LOX IMVI > 25 µM | MDA-MB-435 > 25 µM | MOLT-4 > 25 µM | NCI-H522 > 25 µM | OVCAR-5 > 25 µM | RXF 393 > 25 µM | SK-MEL-28 > 25 µM | SK-MEL-2 > 25 µM | SW-620 > 25 µM | TK-10 > 25 µM | UACC-257 > 25 µM

COc1ccc2c(c1)CC[C@@H]1C2CC[C@]2(C)C(=O)N(C)C(=O)CC12 (stereo partly drawn)
inactive: 786-0 50.1 µM | A549 > 100 µM | ACHN > 100 µM | CAKI-1 > 100 µM | CCRF-CEM > 100 µM | COLO 205 > 100 µM | HCC 2998 > 100 µM | HCT-116 > 100 µM | HOP-62 38.9 µM | MDA-MB-435 > 100 µM | MOLT-4 > 100 µM | NCI-H522 > 100 µM | OVCAR-5 > 100 µM | RXF 393 38.1 µM | SK-MEL-28 > 100 µM | SW-620 > 100 µM | TK-10 > 100 µM | UACC-257 > 100 µM

O=C1c2ccccc2-c2c1c1ccccc1c(=O)n2Cc1ccccc1
inactive: 786-0 28.6 µM | A549 > 100 µM | CAKI-1 56.8 µM | CCRF-CEM > 100 µM | COLO 205 > 100 µM | HCT-116 > 100 µM | HOP-62 38.6 µM | LOX IMVI > 100 µM | MDA-MB-435 > 100 µM | MOLT-4 > 100 µM | NCI-H522 54.3 µM | OVCAR-5 > 100 µM | SK-MEL-28 > 100 µM | SK-MEL-2 > 100 µM | SW-620 > 100 µM | TK-10 40.7 µM | UACC-257 79.4 µM

Cc1ccc2ccccc2c1CC1S(=O)(=O)OCCOS1(=O)=O
inactive: 786-0 16.4 µM | A549 13.5 µM | ACHN 14.4 µM | CAKI-1 12.1 µM | CCRF-CEM 6.31 µM | COLO 205 2.43 µM | HCC 2998 4.15 µM | HCT-116 13.1 µM | HOP-62 12.6 µM | LOX IMVI 7.94 µM | MDA-MB-435 8.67 µM | MOLT-4 6.28 µM | OVCAR-5 11.9 µM | SK-MEL-28 16 µM | SK-MEL-2 16.7 µM | TK-10 16.6 µM | UACC-257 18.2 µM

CC(C)=CC1C(COC(=O)c2ccccc2Cl)C1(C)C (stereo not drawn)
inactive: 786-0 33.2 µM | A549 36.9 µM | ACHN 42.8 µM | CAKI-1 41.6 µM | CCRF-CEM 56.8 µM | HCT-116 49.3 µM | HOP-62 38.4 µM | LOX IMVI 20.2 µM | MDA-MB-435 85.1 µM | MOLT-4 24.3 µM | NCI-H522 20.4 µM | OVCAR-5 38.3 µM | RXF 393 24.9 µM | SK-MEL-28 > 100 µM | SK-MEL-2 46.7 µM | SW-620 51.3 µM | TK-10 > 100 µM | UACC-257 48.9 µM

Cc1cc2nc3[nH]c4c(Cl)cc(Cl)cc4c3nc2cc1C
inactive: 786-0 > 100 µM | A549 > 100 µM | ACHN > 100 µM | CAKI-1 > 100 µM | CCRF-CEM 72.3 µM | COLO 205 > 100 µM | HCT-116 > 100 µM | HOP-62 > 100 µM | LOX IMVI > 100 µM | MDA-MB-435 > 100 µM | MOLT-4 74 µM | NCI-H522 > 100 µM | OVCAR-5 > 100 µM | RXF 393 31.6 µM | SK-MEL-28 > 100 µM | SK-MEL-2 > 100 µM | SW-620 > 100 µM | TK-10 17.3 µM

C=C(c1ccccc1)c1ccccc1-c1cc(-c2ccccc2)cc(-c2ccccc2)n1
inactive: 786-0 > 100 µM | A549 > 100 µM | ACHN > 100 µM | CAKI-1 > 100 µM | CCRF-CEM 84.9 µM | HCC 2998 98.6 µM | HCT-116 65.8 µM | HOP-62 > 100 µM | LOX IMVI > 100 µM | MDA-MB-435 82.2 µM | MOLT-4 > 100 µM | NCI-H522 28.4 µM | OVCAR-5 > 100 µM | RXF 393 > 100 µM | SK-MEL-28 > 100 µM | SW-620 > 100 µM | TK-10 > 100 µM | UACC-257 > 100 µM
